Series [1] relates to rat. The conditions noted are these: Prenatal developmental toxicity study; wistar; Oral; Gavage/Intubation; dose end: 5 GD; group: maternal; reproductive / reproductive performance / implantations / implantations.
Series [2] relates to rat. The conditions noted are these: Multigenerational reproductive toxicity study, other, Oral, Feed, dose end: 2 generation.
The test system of series [3] is dog. To be noted: Subchronic oral toxicity in nonrodent, beagle, Feed, dose end: 90 day, group: systemic, systemic / clinical chemistry / cortisol / cortisol + systemic / organ weight / liver / relative to body weight + systemic / pathology ….
Series [4] deals with mouse. To be noted: Subchronic oral toxicity in rodents, cd1, Feed, dose end: 90 day, group: systemic, systemic / clinical chemistry / hepatic mixed function oxidase (mfo) assay / hepatic mixed function oxidase (mfo) assay + systemic / in life….
The subject of series [5] is rat. To be noted: Combined chronic toxicity/carcinogenicity, other, Oral, Feed, dose end: 24 month, group: systemic.
Series [6] has as its system rat. To be noted: Subchronic oral toxicity in rodents, sprague dawley, Feed, dose end: 90 day, group: systemic.
The subject of series [7] is mouse. The conditions noted are these: Carcinogenicity; b6c3f1; Oral; Feed; dose end: 78 week; group: systemic; systemic / in life observation / body weight / body weight gain.
For series [8], the system named is dog. To be noted: Chronic toxicity, beagle, Oral, Feed, dose end: 52 week, group: systemic.
Series [9] relates to rat. The conditions noted are these: Developmental neurotoxicity study; sprague dawley; Inhalation; Whole-Body; dose end: 365 PND; group: cannot be grouped; systemic / in life observation / body weight / body weight gain + systemic / in life observation / body weight / offspring (pup) weight.
The subject of series [10] is rat. To be noted: Developmental neurotoxicity study; sprague dawley; Oral; Gavage/Intubation; dose end: 70 PND; group: cannot be grouped; reproductive / reproductive performance / gestational length / gestational length + systemic / in life observation / body weight / body ….
The test system of series [11] is rat. To be noted: Developmental neurotoxicity study; sprague dawley; Oral; Water; dose end: 42 PND; group: cannot be grouped; developmental / developmental landmark / eye opening / eye opening + systemic / in life observation / body weight / offspring (pup) weight.
Series [12] deals with rat. To be noted: Developmental neurotoxicity study; fischer; Oral; Water; dose end: 90 PND; group: cannot be grouped; developmental / developmental landmark / incisor eruption / incisor eruption + systemic / in life observation / body weight / offspring (pup….
Setting [13] is: group: offspring, developmental / offspring survival late / viability index / viability index + systemic / in life observation / body weight / offspring (pup….
Where [14] appears, read: group: parental, systemic / pathology microscopic / liver / hypertrophy + systemic / pathology microscopic / liver / vacuolization.
Where [15] appears, read: group: reproductive, reproductive / offspring survival early / dead fetuses / dead fetuses.
Setting [16] is: systemic / pathology microscopic / liver / hypertrophy + systemic / pathology microscopic / liver / vacuolization + systemic / clinical ….
[17] abbreviates: systemic / pathology microscopic / thyroid gland / hypertrophy.
Setting [18] is: systemic / pathology microscopic / thyroid gland / hypertrophy + systemic / clinical chemistry / alanine aminotransferase (alt/sgpt) / ….
[19] abbreviates: systemic / clinical chemistry / albumin / albumin + systemic / clinical chemistry / alkaline phosphatase (alp/alk) / alkaline phosphatase (….
Setting [20] is: systemic / hematology / hematocrit (hct) / hematocrit (hct) + systemic / hematology / hemoglobin (hgb) / hemoglobin (hgb).

The structures appear in SMILES notation.

The term LOAEL denotes the lowest dose or exposure tested at which an adverse effect was seen. The NOAEL is the highest tested level that showed no adverse finding. In the case of `Cc1ccc(-c2cc(C(F)(F)F)nn2-c2ccc(S(N)(=O)=O)cc2)cc1` [Celecoxib], in the series on rat [1], the LEL came out at 80 mg/kg/day, the LOAEL was > 160 mg/kg/day, the NEL came to 40 mg/kg/day and the NOAEL was ≥ 160 mg/kg/day.

In the case of `OC(c1ccc(Cl)cc1)(c1ccc(Cl)cc1)C(Cl)(Cl)Cl` [Dicofol], the LEL in the series with rat [2] (group: offspring, developmental / offspring survival late / [other] / [other] + developmental / offspring survival late / viability index / viability index) was found to be 11.2 mg/kg/day; in the series with rat [2] (setting [14]), 1.9 mg/kg/day; in the series on rat [2] (setting [15]) it was 23.2 mg/kg/day; in the series with dog [3] it was 3.3 mg/kg/day; with mouse [4], 18.2 mg/kg/day; with rat [5] (setting [16]), 2.23 mg/kg/day. The LEL with rat [6] (setting [17]) came to 0.64 mg/kg/day; in the series with mouse [7], 35 mg/kg/day; in the series with dog [8] (setting [20]), 0.12 mg/kg/day. Moreover, the NEL in the series on rat [2] (group: offspring, developmental / offspring survival late / [other] / [other] + developmental / offspring survival late / viability index / viability index + …) was 2.2 mg/kg/day; with rat [2] (setting [14]), 0.4 mg/kg/day; with rat [2] (setting [15]) it was 11.2 mg/kg/day; in the series with dog [3], 0.29 mg/kg/day; in the series with mouse [4] it was 1.6 mg/kg/day; in the series on rat [5] (setting [16]) it was 0.22 mg/kg/day. The NEL was 0.07 mg/kg/day with rat [6] (setting [18]), 17 mg/kg/day in the series on mouse [7] and < 0.12 mg/kg/day with dog [8] (setting [20]). The lowest-observed-adverse-effect level (LOAEL) with rat [2] (setting [13]) was > 23.2 mg/kg/day; in the series on rat [2] (setting [14]), 1.9 mg/kg/day; in the series on rat [2] (setting [15]), > 23.2 mg/kg/day; with dog [3], 3.3 mg/kg/day; in the series with mouse [4], 18.2 mg/kg/day; with rat [5] (systemic / pathology microscopic / liver / hypertrophy + systemic / pathology microscopic / liver / vacuolization), 2.23 mg/kg/day. Besides, the LOAEL was 0.64 mg/kg/day in the series with rat [6] (setting [17]), 35 mg/kg/day in the series on mouse [7] and 5.42 mg/kg/day with dog [8] (setting [19]). The NOAEL is ≥ 23.2 mg/kg/day in the series on rat [2] (setting [13]); 0.4 mg/kg/day in the series with rat [2] (setting [14]); ≥ 23.2 mg/kg/day in the series on rat [2] (setting [15]); 0.29 mg/kg/day in the series with dog [3]; 1.6 mg/kg/day in the series with mouse [4]; 0.22 mg/kg/day with rat [5] (setting [16]). Besides, the values for the no observed adverse effect level (NOAEL) in the series on rat [6] (setting [18]), in the series with mouse [7] and in the series on dog [8] (setting [19]) were 0.07 mg/kg/day, 17 mg/kg/day and 0.85 mg/kg/day, respectively.

Consider `FC(F)(F)C(Cl)Br` (stereo unspecified) [Halothane], for which, in the series with rat [9], the LEL is 12.5 ppm, the LOAEL is > 12.5 ppm, the NEL was < 12.5 ppm and the NOAEL is ≥ 12.5 ppm.

Consider `Cn1cc[nH]c1=S` [Methimazole], for which, in the series on rat [10], the LEL amounted to 20 mg/kg/day, the LOAEL is > 20 mg/kg/day, the NEL was < 20 mg/kg/day and the NOAEL was ≥ 20 mg/kg/day. In addition, in the series on rat [11], the LEL was determined as 7 mg/kg/day, the LOAEL was > 7 mg/kg/day, the NEL was < 7 mg/kg/day and the NOAEL was ≥ 7 mg/kg/day. Moreover, in the series with rat [12], the LEL is 1.5 mg/kg/day, the LOAEL was > 15 mg/kg/day, the NEL is < 1.5 mg/kg/day and the NOAEL is ≥ 15 mg/kg/day.

Source of the values: EPA's ToxRefDB 2.
